Measurements reported in US8551958B2, “Galactosylated pro-drugs of non-steroidal anti-inflammatories with improved pharmacokinetic characteristics and reduced toxicity of the starting drug” (Stewart Italia Srl, priority 2008, dated 2013).
Entries after “also recorded” stand apart in the source; their conditions may differ.

How the values were obtained:
[1] = tested on: mouse carrageenan paw oedema; assay: Carrageenan oedema test; assay type: in vivo, mice
Protocol: Anti-inflammatory activity was tested by means of the carrageenan oedema test. The mice were divided into groups of six. The initial volumes of the leg of all the animals were measured using a plethysmometer. The oedema is induced in the leg by means of sub-plantar injection of 50 μl of saline solution containing 1% of carrageenan. The volume of the leg was measured at different time intervals. Said experimental model consists of two phases: a first, acute, phase lasting 6 hours and a second, chronic, phase, up to 72 hours.
The anti-inflammatory activity of the physical mixture of ketorolac and galactose was evaluated with the carrageenan induced mice hind paw edema assay, as described for ketogal. […]
The carrageenan induced mice hind paw oedema assay described by D'Agostino et al. (2007) was used to evaluate the acute anti-inflammatory activity of the conjugate. Mice were divided into control and test groups of six animals each. Initial paw volumes of all animals were measured using a plethysmometer apparatus (Ugo Basile, Milan, Italy) before treatment. Paw oedema was induced by a subplantar injection of 50 μL of saline containing 1% λ-carrageenan into the right hind paw. […] free acid and ketogal were orally administrated 1 h before carrageenan challenge. Paw volume was measured at different time intervals by plethysmometer. The increase in paw volume was evaluated as the difference between the paw volume measured at each time point and the basal paw volume measured immediately before carrageenan injection.

male Swiss mice = assay: Ulcerogenicity studies, ketorolac and Ketogal (gastric lesions); assay type: in vivo; settings: oral, Ketogal 16.3 mg/kg
Protocol: The gastric lesions were evaluated in male Swiss mice. To the fasted animals (16-18 h) were administered, by oral route, ketorolac (10 mg/kg), Ketogal (16.3 mg/kg), or the vehicle. After 4 hours, the mice were sacrificed and the stomach removed, cut along the major curvature, washed with physiological solution, and the mucous was examined for evaluation of the presence of petechias and/or gastric lesions. A “score” of 1 was assigned to the petechias, and a “score” based on the diameter (a “score” of 5 for lesions of a diameter of less than 1 mm; a “score” of 10 for lesions with a diameter of more than 1 mm) was, instead, assigned to the lesions.

[2] = Chemical stability of the pro-drug (phosphate buffer pH 7.4; HCl 0.1 N pH 1), HPLC; assay type: physicochemical; settings: in the dark
Protocol: For the stability study, the solutions of pro-drug were prepared by dissolving an aliquot of Ketogal in a phosphate buffer at pH 7.4, or else in a solution of HCl 0.1 N (pH 1), as regards chemical stability, or else in a plasma specimen, for enzymatic stability. The solutions were kept in the dark, at a temperature of 37° C., for 24 hours. After each hour an aliquot of specimen was taken. In the case of plasma, said aliquot was previously extracted with acetonitrile (1:2), “vortexed” and centrifuged at 3000 r.p.m. for 10 min. The supernatant was taken and used for analysis at HPLC with diode detector. The half-lives for chemical stability and enzymatic stability were calculated by quantizing, in time, the percentage of pro-drug that remained in solution. For the chromatographic separations, a 1090L HPLC (Hewlett-Packard, Palo Alto, USA) was used, coupled to a diode detector HP 1040A. A Phenomenex Luna C18 (250×4.6 mm, 5 μm) column was used. The wavelength used was 313 nm. The mobile phase was constituted by acetonitrile and an aqueous solution of phosphoric acid […] (pH 3) in the ratio of 68:32. The flow was 1 mL/min, with an injection volume of 20 μl. All the reagents and the solvents used were of analytical degree. The distilled and deionized water was purified by means of a Milli Q system (Millipore). The retention times of the compounds were: ketorolac: 6.7 min; Ketogal: 3.8 min. As internal standard tolmetin was used (9.3 min). The straight line of calibration for quantification of the compounds was constructed using standard solutions with concentrations of between 0.1 and 100 μg/ml. The linearity was obtained with a coefficient of regression (R^2) of approximately 0.998.
For the study of the stability, the solutions of pro-drug were prepared by dissolving an aliquot of Flugal in a phosphate buffer at pH 7.4, as regards chemical stability, or else in a plasma specimen, for enzymatic stability. The solutions were kept in the dark, at a temperature of 37° C., for 24 hours. After each hour an aliquot of specimen was taken. In the case of the plasma said amount was previously extracted with acetonitrile (1:2), “vortexed”, and centrifuged at 3000 r.p.m. for 10 min. The supernatant was taken and used for analysis at HPLC with diode detector. The half-lives for the chemical stability and enzymatic stability were calculated by quantizing, in time, the percentage of pro-drug that remained in solution. A 1090L HPLC (Hewlett-Packard, Palo Alto, USA) coupled to a diode detector HP 1040A was used for the chromatographic separations. The column used was a Supelcosil LC-18, 250×4.6 mm, particle size […]. The volume injected was […] and the flow of 1 mL/min. The mobile phase was constituted by a mixture of aqueous CH3CN/H3PO4 1 mM (pH 3) [32:68]. For the quantitative determination reading was made at 250 nm. The retention times of the various compounds involved in the analysis were: for Flugal 6 min and for flurbiprofen 11 min. All the reagents and the solvents used were of analytical degree. The distilled and deionized water was purified by means of a Milli Q system (Millipore). The straight line of calibration for the quantification of the compounds was constructed using standard solutions with concentrations of between 0.1 and 100 μg/ml. Linearity was obtained with a coefficient of regression (R^2) of approximately 0.998. From the results of said analysis (illustrated in Table 3) it emerges that the pro-drug Flugal has a good chemical stability and a good susceptibility to enzymatic hydrolysis.
Chemical stability was assessed also at pH 1.0 in a solution of HCl 0.1N as described.
For the stability study, the solutions of pro-drug were prepared by dissolving an aliquot of Okigal in a phosphate buffer at pH 7.4, or else in a solution of HCl 0.1 N (pH 1), as regards chemical stability, or else in a plasma specimen, for enzymatic stability. The solutions were kept in the dark, at a temperature of 37° C., for 24 hours. […]

PPAR-gamma = assay: Western blot, stomach, PPAR-gamma protein expression; assay type: in vivo, mice; settings: ketorolac 10 mg/Kg, ketogal 16.3 mg/Kg, oral, 3, 5 and 7 days
Excerpt: Animals were sacrificed and then liver, stomach and kidney were collected in glass tubes and analysed histologically and biochemically.

pH 7.4 T½ ([2]; phosphate buffer at pH 7.4, 37° C.): >4 hours | pH 1 T½ ([2]; solution of HCl 0.1 N (pH 1), 37° C.): 2.1 hours
Compound: O=C(c1ccccc1)c1ccc2n1CC[C@@H]2C(=O)OCC1O[C@H](O)C(O)C(O)[C@H]1O (mixture of isomers) [Ketogal, ketorolac-D-galactos-6′-yl ester]
Anti-inflammatory activity compared with ketorolac ([1]; Ketogal 0.163 mg/kg versus ketorolac 0.1 mg/kg, oral and subcutaneous administration): better analgesic and anti-inflammatory activity than ketorolac | Oedema of the leg ([1]; Ketogal 0.163-16.3 mg/kg oral, 1 h prior to carrageenan): considerably reduces the oedema of the leg in a time-dependent and dose-dependent way | Formation of oedema, first phase ([1]; Ketogal 0.163-16.3 mg/kg oral, first, acute phase (6 hours)): all the doses tested inhibited formation of oedema | Effect on oedema, second phase ([1]; Ketogal oral, second, chronic phase up to 72 hours): continued also in the second phase | Gastrolesive properties (in words) (male Swiss mice; equimolar to ketorolac 10 mg/kg): does not cause ulcers; also recorded: only a slight irritation of the gastric mucosa, with an almost total absence of ulcers | Degree of ulcerogenicity (male Swiss mice; ketorolac 10.0 mg/kg, after 4 hours, score 1 petechias, 5 or 10 lesions): 1 | Number of ulcers (male Swiss mice; ketorolac 10.0 mg/kg, fasted mice, after 4 hours): 1 ± 0.4 | Gastric PPAR-gamma protein expression (PPAR-gamma): not inhibited
